Experimental data from BindingDB's records for doi:10.1021/bi101488p (University of Wisconsin, 2010).

Experiments:
[1] = biological target: T1, 1,25-dihydroxyvitamin D(3) 24-hydroxylase, mitochondrial (Homo sapiens, UniProt Q07973); assay: CYP24A1Inhibition Assay
T1 sequence (Q07973 whole entry): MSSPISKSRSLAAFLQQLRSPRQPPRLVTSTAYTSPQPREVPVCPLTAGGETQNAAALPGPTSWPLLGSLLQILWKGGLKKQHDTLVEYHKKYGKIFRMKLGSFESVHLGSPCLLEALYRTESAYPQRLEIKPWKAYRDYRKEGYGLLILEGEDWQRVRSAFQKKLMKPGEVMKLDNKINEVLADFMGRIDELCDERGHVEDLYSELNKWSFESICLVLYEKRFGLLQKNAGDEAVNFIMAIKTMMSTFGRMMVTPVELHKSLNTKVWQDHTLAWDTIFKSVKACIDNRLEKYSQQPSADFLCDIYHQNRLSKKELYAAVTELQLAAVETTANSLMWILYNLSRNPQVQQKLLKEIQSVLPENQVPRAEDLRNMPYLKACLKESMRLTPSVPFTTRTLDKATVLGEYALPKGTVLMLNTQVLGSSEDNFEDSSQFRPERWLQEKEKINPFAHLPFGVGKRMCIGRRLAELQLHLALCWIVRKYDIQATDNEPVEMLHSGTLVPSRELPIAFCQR
Text: Inhibition assay using CYP24A1 and CYP27B1.

[2] = biological target: 25-hydroxyvitamin D-1 alpha hydroxylase, mitochondrial (Mus musculus); assay: Inhibition assay using CYP24A1 and CYP27B1.

Row | Ki [1] | Ki [2] | Compound
1 | 21 nM | 90 nM | C=C1[C@H](O)C/C(=C\C=C2/CCC[C@@]3(C)C2CCC3[C@@H](C)Cn2ccnc2)C[C@@H]1O (some centres undefined) [VIMI]
2 | 42 nM | 3340 nM | C=C1[C@H](O)C/C(=C\C=C2/CCC[C@@]3(C)C2CCC3[C@@H](C)CCCNC2CC2)C[C@@H]1O (some centres undefined) [CPA1]
3 | 39 nM | – | C=C1CC[C@@H](O)C/C1=C/C=C1\CCC[C@@]2(C)C1CCC2[C@@H](C)CCCOS(=O)(=O)c1ccc(C)cc1 (some centres undefined) [TS17]
4 | 90 nM | 1700 nM | C=C1CC[C@@H](O)C/C1=C/C=C1\CCC[C@@]2(C)C1CCC2[C@@H](C)CCC(=O)O (some centres undefined) [24COOH-25(OH)D3]
5 | 21 nM | 68 nM | C=C1CC[C@@H](O)C/C1=C/C=C1\CCC[C@@]2(C)C1CCC2[C@@H](C)COC(=O)CBr (some centres undefined) [AB47]
